Test results from patent publication US11433045B2, “Treatment of metabolic disorders in canine animals” (Boehringer Ingelheim Vetmedica GmbH, priority 2014, dated 2022).

Details: various environmental conditions and during production of a medicament

For `N#Cc1ccc([C@@H]2O[C@H](CO)[C@@H](O)[C@H](O)[C@H]2O)cc1Cc1ccc(C2CC2)cc1.O=C(O)[C@@H]1CCCN1`, the “physical and chemical stability” value was “high physical and chemical stability”.
